US20230041065A1, “METHODS FOR GENERATING HEMATOPOIETIC STEM CELLS” (The Brigham and Women`s Hospital, Inc., priority 2019, published 2023)
Entries after “also recorded” stand apart in the source; their conditions may differ.

Tests used:
[1] = test system: donor-derived blood lineages; assay: Functional and phenotypic analyses of donor-derived blood lineages in primary transplant; format: in vivo, mouse
Method: Pulsating blood vessels like conditions were stimulated in vitro using Flexcell FX-4000 machine. To analyze roles of pharmacological targets in regulating the endothelial-to-HSC transition, mouse embryo-derived AGM or whole mouse embryo were exposed ex vivo with biomechanical stretching, chemicals, or drugs. Next, hematopoietic colony formation assays were performed by incubating mouse AGM-derived cells in StemCell M3434 media for seven days. Serial transplantation of AGM-derived HSCs in lethally irradiated SJL mice were performed. The stem cell frequency upon biomechanical stretching was analyzed using a limiting dilution assay. To characterize properties of AGM-HSC-derived blood cells in primary transplants, percentage chimerism and reconstitution was measured using FACS, globin transcripts were analyzed using quantitative reverse transcriptase-PCR, myeloperoxidase amount was measured using PicoKine ELISA kit, TCR-β rearrangement was analyzed using PCR for TCR-β locus, pre-immune IG detection was analyzed using Thermo-Fisher Mouse Ig Isotyping kit, and delayed-type hypersensitivity was analyzed by injecting sheep RBC (Rockland Immunochemicals) in the footpad of pre-sensitized mice.
FACS was used to sort erythroid precursors (Cd45.2^+, Ter119^+, Cd71^+) from the unlysed bone marrow isolated from AGM-transplanted mice. Total RNA was isolated using the RNAeasy Minikit (QIAGEN) and cDNA synthesis performed using Superscript III (Invitrogen). Quantitative real-time PCR was performed using SYBR Green (QuantaBio) on an MX3000P machine with the indicated primers (Sankaran et al., 2009). We normalized the expression to that of glyceraldehyde-3-phosphate-dehydrogenase (Gapdh) (Ochida et al., 2010).
Neutrophils (Cd45.2^+, Gr1^+, Mac1^+) were FACS sorted from the isolated bone marrow of 16 week-primary transplanted mice and cultured in IMDM with 10% FBS overnight (500,000 cells/mL) in 24-well plates. Supernatant was collected and the MPO concentration measured using the Mouse MPO/Myeloperoxidase PicoKine™ ELISA Kit (Boster). The MPO concentration was also measured in blood serum.
T cells (Cd45.2^+, Cd3^+) and myeloid cells (Cd45.2^+, Mac1^+) were FACS sorted from the splenocytes of 16 week-primary transplanted mice. Next, genomic DNA was extracted, and PCR performed for DH (β2.1-JH (32.7 rearrangements within TCR-β locus. Our samples were denatured (94° C., 1 min), annealed (63° C., 2 mins) and extended (72° C., 2 mins) for 35 cycles. Primer sequences are as follows:
Transplant mice were sensitized with sheep red blood cells (sRBC, 10^9 cells/mL, 50 μL per site, Rockland Immunochemicals) through subcutaneous (lower back) and intradermal injections (right footpad). […] After 48 hours of the challenge, the footpad thickness was measured with a micro-caliper. […]

[2] = test system: human PSC (DF19-9-7T)-derived hCD34+ hematopoietic cells; assay: Transplantation of human PSC-derived hCD34+ hematopoietic cells in humanized mice; format: in vivo
[3] = test system: E11.5 AGM cells; assay: Hematopoietic CFU and FACS assays on E11.5 AGM cells; format: cell-based, mouse
Method: Pulsating blood vessels like conditions were stimulated in vitro using Flexcell FX-4000 machine. To analyze roles of pharmacological targets in regulating the endothelial-to-HSC transition, mouse embryo-derived AGM or whole mouse embryo were exposed ex vivo with biomechanical stretching, chemicals, or drugs. Next, hematopoietic colony formation assays were performed by incubating mouse AGM-derived cells in StemCell M3434 media for seven days. Serial transplantation of AGM-derived HSCs in lethally irradiated SJL mice were performed. The stem cell frequency upon biomechanical stretching was analyzed using a limiting dilution assay. To characterize properties of AGM-HSC-derived blood cells in primary transplants, percentage chimerism and reconstitution was measured using FACS, globin transcripts were analyzed using quantitative reverse transcriptase-PCR, myeloperoxidase amount was measured using PicoKine ELISA kit, TCR-β rearrangement was analyzed using PCR for TCR-β locus, pre-immune IG detection was analyzed using Thermo-Fisher Mouse Ig Isotyping kit, and delayed-type hypersensitivity was analyzed by injecting sheep RBC (Rockland Immunochemicals) in the footpad of pre-sensitized mice. E11.5 AGM were harvested from C57BL6/J Cd45.2 mouse embryos, and a single cell suspension of a three-embryo equivalent of cells was seeded on each well of a BioFlex six-well culture plate ([…]). We cultured cells overnight with the application of cyclic strain (Flexcell® FX4000TM Tension System) and/or treatment with chemical modulators (2-100 μM Yoda1, 1 μM Nanaomycin, 100 μM Gdcl3, 1 uM GsMT×4, 5-20 μM 4αPDD, 10 uM GSK205). Next, harvested cells were used to perform transplant, fluorescence-activated cell sorting (FACS) analysis, and colony-forming unit (CFU) assays. For CFU assays, cells from AGM explant or ex vivo were plated in MethoCult GF M3434 media (StemCell Technologies). Seven days after seeding, we analyzed their capacity to make granulocyte, erythroid, macrophage, megakaryocyte (GEMM), granulocyte macrophage (GM), granulocyte (G), macrophage (M), and erythroid (E) colonies.

SMILES: Clc1cccc(Cl)c1CSc1nnc(-c2cnccn2)s1 [Yoda1, 2-[5-[[(2,6-Dichlorophenyl)methyl]thio]-1,3,4-thiadiazol-2-yl]-pyrazine]
- expression of adult and embryonic hemoglobin types in donor erythroid cells ([1]; bone marrow Cd71+Ter119+ sorted cells, primary transplant): reconstitutes to red cells containing adult hemoglobin
- myeloperoxidase (MPO) of donor neutrophils ([1]; bone marrow Gr1+Mac1+ sorted cells, overnight culture, ELISA): reconstitute to functional myeloid cells displaying sufficient MPO levels
- delayed-type hypersensitivity ([1]; primary transplant mice, footpad): possess T-cell mediated immune response
- TCRβ locus rearrangement of donor T cells ([1]; spleen-sorted Cd3+ T cells): display T-cell receptor β (TCR β) rearrangement
- percentage of bone marrow reconstitution to human CD33+, CD3+ and CD19+ cells ([2]; primary transplant): stimulates the formation of hCD34+ hematopoietic cells that reconstitute multi-lineage blood
- percentage of bone marrow chimerism ([2]; primary transplant, after 8-10 weeks): enhances the formation of engraftable human CD34+ cells; also recorded: enhances the formation of engraftable hCD34+ cells
- percentage peripheral blood reconstitution to human CD33+, CD3+ and CD19+ cells ([2]; secondary transplant): stimulates the formation of human LT-HSCs that reconstitute multi-lineage blood upon serial transplantation
- percentage of peripheral blood chimerism ([2]; secondary transplant, after 16 weeks): enhances the formation of self-renewing LT-HSCs
- GEMM formation ([3]; 25 μM): enhances GEMM formation
- hematopoietic colony formation (endothelial-to-hematopoietic transition) ([3]; E11.5 AGM cells vs. control): stimulates the endothelial-to-hematopoietic transition
